This note sets out measurements from patent publication US9475842B2, “Hexadepsipeptide analogues as anticancer compounds” (PIRAMAL ENTERPRISES LIMITED, priority 2012, dated 2016).

The nature of series [1]: Solubility (physical properties). Type of series: physicochemical.
The subject of series [2] is MCF-10A, a non-tumourigenic cell line. Put plainly: Monolayer assay (CCK-8 cytotoxicity), normal cells. Type of series: cell-based. Particulars: MCF10A, Normal Breast Epithelium, 24 hrs exposure, CCK-8. The protocol: (§1) The assays were designed as in the reference, BMC Cancer, 2010, 10, 610, 1-11; the disclosure of which is incorporated by reference for the teaching of the assay.
(§2) Human tumour cell lines: Panc-1 (Pancreatic Cancer), HCT 116 (Colorectal Cancer), ACHN (Renal Cell Carcinoma), Calu-1 (Lung Carcinoma), MiaPaca2 (Pancreatic Cancer), FADU (Head and Neck Cancer), PC3 (prostate Cancer), G361 (Melanoma), MDA-MB435S (Melanoma), HeLa (Cervical Cancer) were grown in Minimal Essential Media with Eagle's Basal Salts (MEM-EBS) obtained from AMIMED (BioConcept-Switzerland). Tumour cell lines: MDA-MB231 (Breast Cancer), JURKAT (T cell leukaemia), H460 (Small Cell Lung Cancer) were cultured in RPMI 1640 (AMIMED, BioConcept, Switzerland) medium. All tumour cell lines were supplemented with 10% Foetal Bovine Serum (FBS) (GIBCO), 1% Penicillin/Streptomycin (Sigma) and 1% Anti-Anti (GIBCO) and grown in T-175 tissue culture flasks (Nunc). MCF-10A, a non-tumourigenic cell line, was cultured in Mammary Epithelial Basal Medium (MEBM) with all standard additions (Lonza, Catalog. No. CC-3150). All cells were grown in 5% CO2 incubator at 37° C. Cells were passaged at 80-90% confluence. Adherent cells were trypsinised using Trypsin-EDTA (Sigma) and maintained. All cell lines were purchased from ATCC (Rockville, Md., USA).
(§3) Compound of Formula (1a) [described in example 7] was dissolved in DMSO to give a required stock solution of 20 mM. Eight different concentrations of the compound of Formula (1a) were prepared by serial dilution of stock solution finally resulting in a (compared to the test concentration) 200-fold higher concentration. Compound of Formula (1a) was tested at the concentration of 0.0001 μM, 0.001 μM, 0.01 μM, 0.03 μM, 0.1 μM, 0.3 μM, 1 μM and 3 μM respectively. Each concentration was evaluated in triplicate.
(§4) Method for determination of IC50 of the compound of Formula (1a): • a) Different cancer/normal cells were seeded at a density of 3000 cells/200 μL well, in a tissue culture grade 96 well plate and allowed them to recover for 24 hrs in a humidified 5±0.2% CO2 incubator at 37±0.5° C. • b) After 24 hrs, 1 μL of 200× (200 times higher than required concentration is denoted as 200×) compound of Formula (1a), dissolved in DMSO, was added to the above tissue culture plate seeded with cancer/normal cells. The final concentration of DMSO was 0.5% in wells. DMSO was used as a vehicle control. • c) After 24 hrs the plate was removed from CO2 incubator and 5 μL of CCK-8 (Dojindo Molecular Technologies, Inc. USA, catalog, no. CK04-20) per well was added. • d) The plate was then placed at 37° C. for 2 hrs. • e) The absorbance was recorded at 450 nm. • f) The percent cytotoxicity was calculated using the following formula
(§5) The IC50 value was estimated by visual inspection of the concentration-effect curve. For calculation of mean IC50 values over the fourteen cell lines as tested, the geometric mean was selected.
(§6) The assays were designed as described above in example 16.
(§7) The IC50 value was estimated by visual inspection of the concentration-effect curve. For calculation of mean IC50 values over the six cell lines (PC3, MDA MB, HCT116, MCF7, MIAPaCa2, MCF10A) as tested, the geometric mean was selected.

Series [3] relates to MDA-MB231 (Breast Cancer). Put plainly: Monolayer assay (CCK-8 cytotoxicity). The series is classed as cell-based, human. Particulars: Homo sapiens, MDA-MB-231; MDAMB231, Breast; 24 hrs exposure, CCK-8; read-out: IC50. The protocol:
as §1, §2, §3, §4, §5, §6, §7

Series [4] concerns HCT 116 (Colorectal Cancer). Put plainly: Monolayer assay (CCK-8 cytotoxicity). The series is classed as cell-based, human. Particulars: Homo sapiens, HCT-116; HCT116, Colon; 24 hrs exposure, CCK-8; read-out: IC50. The protocol:
as §1, §2, §3, §4, §5, §6, §7

Another series has as its system PC3 (prostate Cancer). In words: Monolayer assay (CCK-8 cytotoxicity). The series is classed as cell-based, human. The conditions noted are these: Homo sapiens; PC3, Prostate; 24 hrs exposure, CCK-8; read-out: IC50. The protocol:
as §1, §2, §3, §4, §5, §6, §7

The next series concerns H460. In words: Monolayer assay (CCK-8 cytotoxicity). Particulars: Homo sapiens, NCI-H460, H460, Non Small Cell Lung, 24 hrs exposure. The series is classed as cell-based. How it is done:
as §1, §2, §3, §4, §5

Another series concerns MDA-MB435S (Melanoma). In words: Monolayer assay (CCK-8 cytotoxicity). The series is classed as cell-based. The conditions noted are these: Homo sapiens, MDA-MB-435S, MDAMB435S, 24 hrs exposure. The protocol:
as §1, §2, §3, §4, §5

The next series relates to Calu-1 (Lung Carcinoma). In words: Monolayer assay (CCK-8 cytotoxicity). The series is classed as cell-based. Particulars: Homo sapiens, 24 hrs exposure. How it is done:
as §1, §2, §3, §4, §5

Series [5] relates to FADU (Head and Neck Cancer). In words: Monolayer assay (CCK-8 cytotoxicity). The conditions noted are these: Homo sapiens, 24 hrs exposure. The series is classed as cell-based. The protocol: as §1, §2, §3, §4, §5
For series [6], the system named is ACHN (Renal Cell Carcinoma). Put plainly: Monolayer assay (CCK-8 cytotoxicity). Type of series: cell-based. Particulars: Homo sapiens, 24 hrs exposure. The protocol:
as §1, §2, §3, §4, §5

For series [7], the system named is Panc-1 (Pancreatic Cancer). Put plainly: Monolayer assay (CCK-8 cytotoxicity). Type of series: cell-based. The conditions noted are these: Homo sapiens, 24 hrs exposure. How it is done:
as §1, §2, §3, §4, §5

The subject of a further series is G361 (Melanoma). In words: Monolayer assay (CCK-8 cytotoxicity). Type of series: cell-based. The conditions noted are these: Homo sapiens, G-361, 24 hrs exposure. The protocol: as §1, §2, §3, §4, §5
The subject of series [8] is JURKAT (T cell leukaemia). In words: Monolayer assay (CCK-8 cytotoxicity). The series is classed as cell-based. Particulars: Homo sapiens, 24 hrs exposure. The protocol: as §1, §2, §3, §4, §5

Structures are written as SMILES.

Take `CC(C)CC1CCC(O)(C(C)(O)C(=O)NC2C(=O)N3NCCCC3C(=O)N(O)C(C)C(=O)NCC(=O)N3NCCCC3C(=O)N(O)C(C)C(=O)OC2C(C)C)OC1C` (stereo not drawn) [Formula (1a), N-(6,18-dihydroxy-22-isopropyl-7,19-dimethyl-5,8,11,17,20,24-hexaoxotetracosa hydrodipyridazino[6,1-f:6′,1′-o][1,4,7,10,13,16]oxapentaazacyclononadecin-23-yl)-2-hydroxy-2-(2-hydroxy-5-isobutyl-6-methyltetrahydro-2H-pyran-2-yl)propanamide]: in [1] (chloroform, ethyl acetate and methanol), the “Solubility in organic solvents” value was “Soluble in chloroform, ethyl acetate and methanol;”. In addition, the Solubility in water entry in [1] (water) is on record as “insoluble in water”. Further, the IC50 turned out to be 19 nM in [2] (Homo sapiens, MCF-10A, 24 h); 19.7 ± 3.1 nM in series [2]; 6.1 ± 0.52 nM in series [3]; 15.1 ± 2.3 nM in series [4]; 5.2 ± 0.41 nM with PC3 (prostate Cancer); 9.2 ± 0.76 nM in the series with H460. Moreover, the IC50 came out at 2.9 ± 0.48 nM with MDA-MB435S (Melanoma); 25.2 ± 3.5 nM with Calu-1 (Lung Carcinoma); 22.4 ± 1.2 nM in series [5]; 7.1 ± 0.64 nM in [6]; 1.3 ± 0.32 nM in series [7]; 24.1 ± 4.3 nM in the series on G361 (Melanoma). In series [8], the IC50 came to 15.9 ± 2.6 nM.
